# Data reported in patent publication US12441726B2, “Compounds and uses thereof” (Foghorn Therapeutics Inc., priority 2020, dated 2025).
# Tests used:
# [1] = target: BRM (Homo sapiens, UniProt P51531); test: ATPase catalytic activity assay (ADP-Glo), BRM; conditions: 30 nM BRM, 400 μM ATP; for IC50: BRM ATPase: IC50 (uM)
# [2] = target: BRG-1 (Homo sapiens, UniProt P51532); test: ATPase catalytic activity assay (ADP-Glo), BRG-1; conditions: for Emax: 1 h, read-out: BRG1 Max % Inhibition, ADP-Glo, 30 nM BRG-1, 400 μM ATP
# Chain of BRG-1 (P51532 whole entry): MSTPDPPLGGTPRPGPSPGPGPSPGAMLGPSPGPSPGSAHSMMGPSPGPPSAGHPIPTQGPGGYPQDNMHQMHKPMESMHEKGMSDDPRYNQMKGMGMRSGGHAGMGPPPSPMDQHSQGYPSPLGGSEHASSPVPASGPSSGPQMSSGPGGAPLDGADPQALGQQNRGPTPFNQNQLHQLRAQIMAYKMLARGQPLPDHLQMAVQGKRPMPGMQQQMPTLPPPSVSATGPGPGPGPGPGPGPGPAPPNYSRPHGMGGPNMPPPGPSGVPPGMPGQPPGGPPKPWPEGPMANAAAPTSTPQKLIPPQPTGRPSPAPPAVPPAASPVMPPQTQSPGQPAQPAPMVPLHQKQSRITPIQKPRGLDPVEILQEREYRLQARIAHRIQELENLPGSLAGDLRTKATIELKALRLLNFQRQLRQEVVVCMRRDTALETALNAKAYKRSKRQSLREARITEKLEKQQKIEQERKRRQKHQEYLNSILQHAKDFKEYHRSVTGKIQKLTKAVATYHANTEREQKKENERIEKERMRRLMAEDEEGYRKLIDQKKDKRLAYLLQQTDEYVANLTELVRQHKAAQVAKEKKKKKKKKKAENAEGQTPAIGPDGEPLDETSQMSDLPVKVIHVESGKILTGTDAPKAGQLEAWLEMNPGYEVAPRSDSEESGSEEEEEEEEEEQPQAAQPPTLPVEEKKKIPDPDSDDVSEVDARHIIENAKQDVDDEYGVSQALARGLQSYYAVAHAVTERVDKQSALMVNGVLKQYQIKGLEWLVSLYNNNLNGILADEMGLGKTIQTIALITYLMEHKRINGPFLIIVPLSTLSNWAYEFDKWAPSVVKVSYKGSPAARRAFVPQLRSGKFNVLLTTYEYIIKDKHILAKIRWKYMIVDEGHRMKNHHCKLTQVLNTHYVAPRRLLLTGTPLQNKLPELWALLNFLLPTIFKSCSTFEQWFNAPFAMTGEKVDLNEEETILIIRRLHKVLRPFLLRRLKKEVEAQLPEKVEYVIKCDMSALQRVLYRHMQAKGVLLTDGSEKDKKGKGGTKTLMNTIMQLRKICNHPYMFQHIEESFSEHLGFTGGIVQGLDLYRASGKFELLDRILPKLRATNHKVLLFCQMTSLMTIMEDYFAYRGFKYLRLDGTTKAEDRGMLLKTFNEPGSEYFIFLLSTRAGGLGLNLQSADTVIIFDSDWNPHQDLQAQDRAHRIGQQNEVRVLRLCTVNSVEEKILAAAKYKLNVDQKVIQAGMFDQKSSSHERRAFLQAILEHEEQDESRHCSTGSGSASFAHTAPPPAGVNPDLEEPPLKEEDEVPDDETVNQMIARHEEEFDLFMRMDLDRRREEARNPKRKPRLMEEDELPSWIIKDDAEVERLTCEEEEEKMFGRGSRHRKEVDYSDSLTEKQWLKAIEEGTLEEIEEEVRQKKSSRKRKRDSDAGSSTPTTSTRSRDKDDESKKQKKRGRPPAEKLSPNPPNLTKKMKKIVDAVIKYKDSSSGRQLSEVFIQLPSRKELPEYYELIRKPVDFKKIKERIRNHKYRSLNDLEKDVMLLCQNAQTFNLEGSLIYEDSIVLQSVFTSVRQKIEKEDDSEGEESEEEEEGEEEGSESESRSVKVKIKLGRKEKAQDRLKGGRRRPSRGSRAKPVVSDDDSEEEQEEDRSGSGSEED
# Description: The ATPase catalytic activity of BRM or BRG-1 was measured by an in vitro biochemical assay using ADP-Glo™ (Promega, V9102). The ADP-Glo™ kinase assay is performed in two steps once the reaction is complete. The first step is to deplete any unconsumed ATP in the reaction. The second step is to convert the reaction product ADP to ATP, which will be utilized by the luciferase to generate luminesce and be detected by a luminescence reader, such as Envision.
# Then following addition of 5 μL of ADP-Glo™ Reagent provided in the kit, the reaction incubates at room temperature for 40 minutes. Then 10 μL of Kinase Detection Reagent provided in the kit is added to convert ADP to ATP, and the reaction incubates at room temperature for 60 minutes. Finally, luminescence measurement is collected with a plate-reading luminometer, such as Envision.
# Chain of BRM (P51531 whole entry): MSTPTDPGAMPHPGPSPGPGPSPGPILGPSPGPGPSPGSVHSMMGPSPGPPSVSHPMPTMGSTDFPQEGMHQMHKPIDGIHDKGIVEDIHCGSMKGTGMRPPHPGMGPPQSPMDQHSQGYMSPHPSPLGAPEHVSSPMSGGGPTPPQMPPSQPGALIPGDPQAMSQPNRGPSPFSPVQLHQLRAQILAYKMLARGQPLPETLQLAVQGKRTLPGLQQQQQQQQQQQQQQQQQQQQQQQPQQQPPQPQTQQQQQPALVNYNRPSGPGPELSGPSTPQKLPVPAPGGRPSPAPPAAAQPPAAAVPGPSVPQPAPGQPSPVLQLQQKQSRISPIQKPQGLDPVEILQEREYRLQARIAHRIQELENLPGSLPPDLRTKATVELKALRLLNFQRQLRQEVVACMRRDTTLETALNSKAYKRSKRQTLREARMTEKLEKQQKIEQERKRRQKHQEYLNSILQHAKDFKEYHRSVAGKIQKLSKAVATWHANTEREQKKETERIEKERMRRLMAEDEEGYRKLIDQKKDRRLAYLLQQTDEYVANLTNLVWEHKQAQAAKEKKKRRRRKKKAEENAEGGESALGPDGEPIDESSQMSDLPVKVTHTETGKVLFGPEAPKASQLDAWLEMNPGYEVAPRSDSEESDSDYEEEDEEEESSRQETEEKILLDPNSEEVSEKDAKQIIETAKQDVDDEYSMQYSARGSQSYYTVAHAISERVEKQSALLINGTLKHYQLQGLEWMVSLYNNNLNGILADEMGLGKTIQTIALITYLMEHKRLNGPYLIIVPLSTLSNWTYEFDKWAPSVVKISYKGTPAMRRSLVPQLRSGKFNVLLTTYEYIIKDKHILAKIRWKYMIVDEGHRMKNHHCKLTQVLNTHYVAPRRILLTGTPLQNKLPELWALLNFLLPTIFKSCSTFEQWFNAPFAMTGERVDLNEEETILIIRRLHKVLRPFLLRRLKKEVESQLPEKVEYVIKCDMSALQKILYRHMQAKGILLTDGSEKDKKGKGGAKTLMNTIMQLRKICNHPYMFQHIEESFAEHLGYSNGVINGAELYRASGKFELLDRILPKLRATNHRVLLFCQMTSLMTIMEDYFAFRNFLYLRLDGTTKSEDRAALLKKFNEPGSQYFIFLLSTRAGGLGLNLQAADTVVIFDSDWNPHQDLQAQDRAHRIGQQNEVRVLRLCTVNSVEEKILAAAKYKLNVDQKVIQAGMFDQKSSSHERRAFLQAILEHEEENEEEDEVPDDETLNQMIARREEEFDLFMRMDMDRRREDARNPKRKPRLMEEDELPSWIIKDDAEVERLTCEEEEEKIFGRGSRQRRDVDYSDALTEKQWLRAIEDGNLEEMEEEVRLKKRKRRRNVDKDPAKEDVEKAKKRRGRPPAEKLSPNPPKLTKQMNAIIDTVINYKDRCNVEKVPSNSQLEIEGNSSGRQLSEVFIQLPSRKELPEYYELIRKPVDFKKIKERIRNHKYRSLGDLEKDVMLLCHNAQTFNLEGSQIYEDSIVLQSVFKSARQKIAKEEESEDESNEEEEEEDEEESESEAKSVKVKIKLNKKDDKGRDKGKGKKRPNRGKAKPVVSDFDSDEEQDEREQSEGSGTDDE
SMILES,BRM Max % Inhibition [1] [%],IC50 [1] [µM],IC50 [2] [nM],Emax [2] [%]
CN1Cc2ccc(-c3ccc4cnc(CNC(=O)c5ccc6c(c5)[C@](C)(C#N)COC6)cc4n3)cc2C1=O [Compound 485],93,0.1 to 0.5,500 to 1000,82
C[C@@]1(C#N)COCc2ccc(C(=O)NCc3cc4nc(N5CCn6nccc6C5)ccc4cn3)cc21 [Compound 486],95,0.1 to 0.5,> 1000,70
C[C@@]1(C#N)COCc2ncc(C(=O)NCc3cc4nc(-c5cc(F)cc(N6CCC6)c5)ccc4cn3)cc21 [Compound 487],100,< 0.1,100 to 500,95
COc1ncccc1-c1ccc2cnc(CNC(=O)c3ccc4c(c3)[C@](C)(C#N)COC4)cc2n1 [Compound 488],101,< 0.1,100 to 500,91
COc1ccncc1-c1ccc2cnc(CNC(=O)c3ccc4c(c3)[C@](C)(C#N)COC4)cc2n1 [Compound 489],97,0.1 to 0.5,500 to 1000,76
CN(C)C(=O)c1cccc(-c2ccc3cnc(CNC(=O)c4ccc5c(c4)[C@](C)(C#N)COC5)cc3n2)c1 [Compound 490],93,0.1 to 0.5,> 1000,40
COc1c(-c2ccc3cnc(CNC(=O)c4ccc5c(c4)[C@](C)(C#N)COC5)cc3n2)ccc2cnn(C)c12 [Compound 491],98,0.1 to 0.5,500 to 1000,76
COc1cccc(-c2ccc3cnc(CNC(=O)c4ccc5c(c4)[C@](C)(C#N)COC5)cc3n2)n1 [Compound 492],99,< 0.1,100 to 500,91
C[C@@]1(C#N)COCc2ccc(C(=O)NCc3cc4nc(-c5cnn6ccccc56)ccc4cn3)cc21 [Compound 493],96,0.1 to 0.5,500 to 1000,68
C[C@@]1(C#N)COCc2ccc(C(=O)NCc3cc4cc(-c5ccccc5)ccc4nn3)cc21 [Compound 494],99,< 0.1,100 to 500,90
CN1Cc2cc(-c3ccc4cnc(CNC(=O)c5ccc6c(c5)[C@](C)(C#N)COC6)cc4n3)ccc2C1=O [Compound 495],99,< 0.1,100 to 500,88
C[C@@]1(C#N)COCc2ccc(C(=O)NCc3cc4nc(-c5cccc(N6CCC6)n5)ccc4cn3)cc21 [Compound 496],100,< 0.1,< 100,92
C[C@@]1(C#N)COCc2ccc(C(=O)NCc3cc4nc(-c5cncc(N6CCC6)n5)ccc4cn3)cc21 [Compound 497],100,< 0.1,< 100,97
CN1C(=O)Cc2cc(-c3ccc4cnc(CNC(=O)c5ccc6c(c5)[C@](C)(C#N)COC6)cc4n3)ccc21 [Compound 498],98,0.1 to 0.5,100 to 500,83
C[C@@]1(C#N)COCc2ccc(C(=O)NCc3cc4nc(-c5cnn(-c6cccnc6)c5)ccc4cn3)cc21 [Compound 499],85,0.1 to 0.5,> 1000,29
C[C@@]1(C#N)COCc2ncc(C(=O)NCc3cc4nc(-c5cccc(C(F)F)c5)ccc4cn3)cc21 [Compound 500],95,< 0.1,500 to 1000,83
Cc1cc(-c2ccc3cnc(CNC(=O)c4ccc5c(c4)[C@](C)(C#N)COC5)cc3n2)n(C)n1 [Compound 501],85,0.1 to 0.5,> 1000,47
CCOC(=O)C12CCC(CC1)N(c1ccc3cnc(CNC(=O)c4ccc5c(c4)[C@](C)(C#N)COC5)cc3n1)C2 [Compound 502],89,0.1 to 0.5,500 to 1000,70
Cc1ccn(-c2ccc3cnc(CNC(=O)c4ccc5c(c4)[C@](C)(C#N)COC5)cc3n2)n1 [Compound 503],94,0.1 to 0.5,> 1000,72
C[C@@]1(C#N)COCc2ccc(C(=O)NCc3cc4nc(-c5cnn(C(F)F)c5)ccc4cn3)cc21 [Compound 504],84,0.1 to 0.5,> 1000,44
Cc1cnn(-c2ccc3cnc(CNC(=O)c4ccc5c(c4)[C@](C)(C#N)COC5)cc3n2)c1 [Compound 505],96,0.1 to 0.5,500 to 1000,72

SMILES,BRM Max % Inhibition [1] [%],IC50 [1] [µM],IC50 [2] [nM],Emax [2] [%]
C[C@@]1(C#N)COCc2ccc(C(=O)NCc3cc4nc(-c5ccnc(N6CCC6)n5)ccc4cn3)cc21 [Compound 506],97,< 0.1,100 to 500,96
COc1cnccc1-c1ccc2cnc(CNC(=O)c3ccc4c(c3)[C@](C)(C#N)COC4)cc2n1 [Compound 507],97,< 0.1,100 to 500,77
C[C@@]1(C#N)COCc2ccc(C(=O)NCc3cc4cc(-c5ccccc5)ncc4cn3)cc21 [Compound 508],90,0.1 to 0.5,> 1000,46
Cc1nn(C)cc1-c1ccc2cnc(CNC(=O)c3ccc4c(c3)[C@](C)(C#N)COC4)cc2n1 [Compound 509],93,0.1 to 0.5,500 to 1000,54
Cn1cccc(-c2ccc3cnc(CNC(=O)c4ccc5c(c4)[C@](C)(C#N)COC5)cc3n2)c1=O [Compound 510],89,0.1 to 0.5,> 1000,64
C[C@@]1(C#N)COCc2ccc(C(=O)NCc3cc4cc(-c5ccccc5)cnc4cn3)cc21 [Compound 511],96,< 0.1,500 to 1000,79
COc1cc(-c2ccc3cnc(CNC(=O)c4ccc5c(c4)[C@](C)(C#N)COC5)cc3n2)ccn1 [Compound 512],97,< 0.1,500 to 1000,80
C[C@@]1(C#N)COCc2ccc(C(=O)NCc3cc4nc(-c5cnn(C6COC6)c5)ccc4cn3)cc21 [Compound 513],87,0.1 to 0.5,> 1000,36
C[C@@]1(C#N)COCc2ccc(C(=O)NCc3cc4nc(N5CCCC5)ccc4cn3)cc21 [Compound 514],95,0.1 to 0.5,> 1000,59
COc1c(F)cc(F)cc1-c1ccc2cnc(CNC(=O)c3ccc4c(c3)[C@](C)(C#N)COC4)cc2n1 [Compound 515],90,0.1 to 0.5,500 to 1000,68
COc1c(F)cccc1-c1ccc2cnc(CNC(=O)c3ccc4c(c3)[C@](C)(C#N)COC4)cc2n1 [Compound 516],96,0.1 to 0.5,500 to 1000,77
COc1ccc(F)cc1-c1ccc2cnc(CNC(=O)c3ccc4c(c3)[C@](C)(C#N)COC4)cc2n1 [Compound 517],98,< 0.1,100 to 500,88
C[C@@]1(C#N)COCc2ccc(C(=O)NCc3cc4nc(-c5cc(F)cc(F)c5)ccc4cn3)cc21 [Compound 518],96,0.1 to 0.5,500 to 1000,72
C[C@@]1(C#N)COCc2ccc(C(=O)NCc3cc4nc(-c5ccc(C(F)F)cc5)ccc4cn3)cc21 [Compound 519],96,< 0.1,100 to 500,90
C[C@@]1(C#N)COCc2ccc(C(=O)NCc3cc4nc(-c5cnccn5)ccc4cn3)cc21 [Compound 520],88,0.1 to 0.5,500 to 1000,53
C[C@@]1(C#N)COCc2ccc(C(=O)NCc3cc4nc(-c5ccccc5C(F)F)ccc4cn3)cc21 [Compound 521],85,0.1 to 0.5,> 1000,34
C[C@@]1(C#N)COCc2ccc(C(=O)NCc3ncc4ccc(-c5ccccc5)cc4n3)cc21 [Compound 522],97,0.1 to 0.5,500 to 1000,83
COC(=O)N1CCC2CC2(c2ccc3cnc(CNC(=O)c4ccc5c(c4)[C@](C)(C#N)COC5)cc3n2)C1 (stereo partly drawn) [Compound 523],90,0.1 to 0.5,500 to 1000,58
C[C@@]1(C#N)COCc2ccc(C(=O)NCc3cc4nn(-c5ccccc5)cc4cn3)cc21 [Compound 524],95,0.1 to 0.5,> 1000,50
O=C(NCc1cc2nc(-c3ccccc3)ccc2cn1)c1ccc2c(c1)[C@@](F)(C(F)F)COC2 [Compound 525],97,0.1 to 0.5,500 to 1000,69
C[C@@H]1CN(c2cccc(-c3ccc4[nH]c(CNC(=O)c5ccc6c(c5)[C@](C)(CO)CC6)nc4c3)c2)C[C@H](C)O1 [Compound 526],90.7,0.1 to 0.5,500 to 1000,61.2
